Test results: patent publication US11427615B2, “Peptide compound and application thereof, and composition containing peptide compound” (XDCEXPLORER (SHANGHAI) CO., LTD., priority 2017, dated 2022)
pEC50: −log10 of the molar value. Starred links: 1 amine or outer side, 2 acyl side, 3 side chain; linkers in the order of their positions; H or OH if unused. Non-standard residues stand in square brackets, D forms with d. Residues, ends and D or L forms follow the SMILES beside them. *: point of attachment. X6 = O=C([C@H](Cc1ccc(-n2cccn2)cc1)N[*:1])[*:2]; X16 = O=C(CCC(=O)[*:2])[C@H](Cc1ccccc1)N[*:1]; dPhe(2,4-Cl2) = N[C@H](Cc1ccc(Cl)cc1Cl)C(=O)O; PEG8 = NCCOCCOCCOCCOCCOCCOCCOCCOCCC(=O)O; Pro(4,4-F2) = O=C(O)[C@@H]1CC(F)(F)CN1; Arg(Me) = CNC(=N)NCCC[C@H](N)C(=O)O; Palmitoyl = CCCCCCCCCCCCCCCC(=O)*; Hyp = O=C(O)[C@@H]1C[C@@H](O)CN1; Pip = O=C(O)[C@@H]1CCCCN1; Ac6c = NC1(C(=O)O)CCCCC1; Ac5c = NC1(C(=O)O)CCCC1; azaGly = NNC(=O)O

Biological target: T1, human kiss1 receptor (GPR54) (Homo sapiens, UniProt Q969F8)
T1 construct: host or cells: NFAT-bla CHO-K1 cells (Chinese hamster ovary), purchased recombinant cell line
Experiment: Kiss1 receptor (GPR54) binding activity of agonists, FRET detection in NFAT-bla CHO-K1 cells
Type: cell-based
Settings: GPR54; measured according to the method of effect Embodiment 1; preliminary data; read-out: Preliminary measurement data (GPR54) EC50
Experimental: Effect Embodiment 1 Determination of Kiss1 Receptor (GPR54) Binding Activity of Kiss1 Receptor (GPR54) Agonist
The binding activity test of each compound from the above the embodiments with kiss1 receptor (GPR54) was performed by fluorescence energy resonance transfer (FRET) detection technology to detect EC50 values of polypeptides and peptide analogs. The cells used in this experiment were NFAT-bla CHO-K1 cells (k1720, invitrogen, thermosher) that express human kiss1 receptor (GPR54). The specific operations were as follows:
Day 1: Seeding Cells in Plate
1. Microscope (CKX41, OLYMPUS), object lens×4 times, ocular lens×10 times. The cells were ensured in a good condition.
2. Digesting the cells, adding 3 ml of 0.05% pancreatin into a culture dish; cells were placed in a 37° C., 5% CO2 incubator for 2 minutes (Thermo Fisher). After the cells became round under the microscope, 7 ml of culture medium was added. The formula of culture medium was as follows: DMEM 90%, dialzedfbS10, NEAA 0.1 mM, HEPES 25 mM, Penicillin 100 U/ml, Streptomycin 100 μm/ml, pH7.3. After blowing and stirring, it was transferred to 15 mL centrifuge tube (430790, Corning). Centrifuge at 1000 rpm for 5 min (5810R, Eppendorf) and the supernatant was discard.
3. Adding 7 mL of culture medium (DMEM+0.1% BSA), it was pipetting into single cell suspension, after counting with Bio-RAD counter, the cell density was adjusted to 312,500 cells/ml.
4. Cells were inoculated into 384 well plates at 32 μL per well, and the cell number was controlled at 10000 cells/well. 32 μl of culture medium was added into the blank control.
Day 2: Dosing and Data Analysis
1) The compound to be tested was prepared into 50 mM working solution with DMSO.
2) 40 μl of the working solution of the compound to be tested was added into column 2 of row A-H of U-shaped 96-well plate (3797, comings), and 60 μl of DMSO was added into column 3-11. 20 μl of compound solution was sucked from the second column to the third column with a multichannel pipette blowing and stirring evenly; 20 μl of compound solution was absorbed from the third column with a multichannel pipette, then added into the fourth column, blowed and stirred to mix well; the compound was serially diluted 4-fold to a total of 10 concentrations. Column 1 and column 12 of 96-well plates were supplemented with 40 μl DMSO.
2. Intermediate Plate Configuration
1) AU-shaped 96-well plate was used, 199 μL of culture medium (DMEM+0.1% BSA) was added to each well, 1 μL of diluted compound (or DMSO) was sucked from 1000× compound plate and added into the 96-well plate at the corresponding position, blowed and stirred to mix well.
2) Homemade positive compounds and compounds to be tested were added. The cell culture plate was took out from the incubator and cells state was observed under microscope. Diluted compound in the intermediate plate or DMSO was added into the cell, 8 μl per well.
3) Cells were cultured in 37° C. and 5% CO2 for 4 hours.
3. The Substrate was Added to Detect the Binding of the Drug to the Receptor
1) 1 μmol/L CCF-4AM solution and buffer solution B, C, D were equilibrated to room temperature. LiveBLAZER™-FRET B/G Loading Kit (K1095, thermo Fisher) containing CCF-4AM and solution B, solution C, solution D were also available from Invitrogen (K1157, thermo Fisher).
2) 6× loading solution was prepared: 6 μl of CCF-4AM dissolved solution A, 60 μl of solution b, 904 μl of solution c, and 30 μl of solution D were pipetted into EP tube, blowed and stirred to mix well.
3) 8 μl of the above-mentioned liquid was sucked with a multichannel pipette, added into a 96-well plate, and incubated for 2 hours at room temperature.
4) The PerkinElmer detector was used to detect the luminous signals of each hole. FI mode, λex=409 nm, λem1=460 nm, λem2=530 nm.
4. Data Processing Using Graphpad Prism 5 (GraphPad Software. Inc)
Effective rate %=(Signal−Min)/(Max−Min)×100%.

T1 sequence (Q969F8 whole entry): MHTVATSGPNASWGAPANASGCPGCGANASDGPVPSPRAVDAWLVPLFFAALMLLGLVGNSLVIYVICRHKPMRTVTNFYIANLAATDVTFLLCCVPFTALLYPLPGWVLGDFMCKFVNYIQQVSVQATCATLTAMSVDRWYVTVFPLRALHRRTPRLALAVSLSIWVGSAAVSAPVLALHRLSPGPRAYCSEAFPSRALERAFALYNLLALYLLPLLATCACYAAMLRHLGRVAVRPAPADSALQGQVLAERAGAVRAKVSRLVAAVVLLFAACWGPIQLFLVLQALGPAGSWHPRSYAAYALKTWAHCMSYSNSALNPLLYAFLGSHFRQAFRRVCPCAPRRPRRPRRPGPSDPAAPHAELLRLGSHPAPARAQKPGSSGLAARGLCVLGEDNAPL

In order of rising pEC50:
1. CNC(=N)NCCC[C@H](NC(=O)[C@H](CC(C)C)NC(=O)C1(NC(=O)[C@H](Cc2ccccc2)NC(=O)[C@@H](NC(=O)[C@H](CC(N)=O)NC(=O)[C@@H]2CC(F)(F)CN2C(=O)[C@@H](Cc2ccc(Cl)cc2Cl)NC(C)=O)[C@@H](C)O)CCCCC1)C(=O)N[C@@H](Cc1c[nH]c2ccccc12)C(N)=O [YA-248, Ac-[D-Phe(2,4-diCl)]-Pro(diF)-Asn-Thr-Phe-A6c-Leu-Arg(Me)-Trp-NH2] (Ac-[dPhe(2,4-Cl2)][Pro(4,4-F2)]NTF[Ac6c]L[Arg(Me)]W-NH2)  9.11
2. CNC(=N)NCCC[C@H](NC(=O)[C@H](CC(C)C)NC(=O)C1(NC(=O)[C@H](Cc2ccccc2)NC(=O)[C@@H](NC(=O)[C@H](CC(N)=O)NC(=O)[C@@H]2CC(F)(F)CN2C(=O)[C@@H](Cc2ccc(O)cc2)NC(C)=O)[C@@H](C)O)CCCCC1)C(=O)N[C@@H](Cc1c[nH]c2ccccc12)C(N)=O [YA-251, Ac-D-Tyr-Pro(diF)-Asn-Thr-Phe-A6c-Leu-Arg(Me)-Trp-NH2] (Ac-[dY][Pro(4,4-F2)]NTF[Ac6c]L[Arg(Me)]W-NH2)  9.19
3. CNC(=N)NCCC[C@H](NC(=O)[C@H](CC(C)C)NC(=O)C1(NC(=O)[C@H](Cc2ccccc2)NC(=O)[C@@H](NC(=O)[C@H](CC(N)=O)NC(=O)[C@@H]2C[C@@H](O)CN2C(=O)[C@@H](Cc2ccc(O)cc2)NC(C)=O)[C@@H](C)O)CCCC1)C(=O)N[C@@H](Cc1c[nH]c2ccccc12)C(N)=O [YA-282, Ac-(D-Tyr)-Hyp-Asn-Thr-Phe-cycloLeu-Leu-Arg(Me)-Trp-NH2] (Ac-[dY][Hyp]NTF[Ac5c]L[Arg(Me)]W-NH2)  9.34
4. CNC(=N)NCCC[C@H](NC(=O)[C@H](CC(C)C)NC(=O)NNC(=O)[C@H](Cc1ccccc1)NC(=O)[C@@H](NC(=O)[C@H](CC(N)=O)NC(=O)C1(NC(C)=O)CCCCC1)[C@@H](C)O)C(=O)N[C@@H](Cc1c[nH]c2ccccc12)C(N)=O [YA-266, Ac-A6c-Asn-Thr-Phe-azaG-Leu-Arg(Me)-Trp-NH2] (Ac-[Ac6c]NTF[azaGly]L[Arg(Me)]W-NH2)  9.49
5. CNC(=N)NCCC[C@H](NC(=O)[C@H](CC(C)C)NC(=O)CCC(=O)[C@H](Cc1ccccc1)NC(=O)[C@@H](NC(=O)[C@H](CC(N)=O)NC(=O)[C@@H]1C[C@@H](O)CN1C(=O)[C@@H](Cc1ccc(O)cc1)NC(C)=O)[C@@H](C)O)C(=O)N[C@@H](Cc1c[nH]c2ccccc12)C(N)=O [YA-274, M10 [Ac, D-Tyr45, Hyp46, des47, Thr49, (—CH2CH2CO—)51, Arg(Me)53, Trp54]] (Ac-[dY][Hyp]NT[X16]L[Arg(Me)]W-NH2; C-terminus assumed)  10.32
6. CNC(=N)NCCC[C@H](NC(=O)[C@H](CC(C)C)NC(=O)NNC(=O)[C@H](Cc1ccccc1)NC(=O)[C@@H](NC(=O)[C@H](CC(N)=O)NC(=O)C1(NC(=O)[C@@H](Cc2ccc(Cl)cc2Cl)NC(C)=O)CCCCC1)[C@@H](C)O)C(=O)N[C@@H](Cc1c[nH]c2ccccc12)C(N)=O [YA-260, Ac-[D-Phe(2,4-DiCl)]-A6c-Asn-Thr-Phe-azaGly-Leu-Arg(Me)-Trp-NH2] (Ac-[dPhe(2,4-Cl2)][Ac6c]NTF[azaGly]L[Arg(Me)]W-NH2)  10.57
7. CCCCCCCCCCCCCCCC(=O)NCCOCCOCCOCCOCCOCCOCCOCCOCCC(=O)NCC(=O)NCC(=O)N[C@H](Cc1ccc(O)cc1)C(=O)NC1(C(=O)N[C@@H](CC(N)=O)C(=O)N[C@H](C(=O)N[C@@H](Cc2ccccc2)C(=O)NNC(=O)N[C@@H](CC(C)C)C(=O)N[C@@H](CCCNC(=N)NC)C(=O)N[C@@H](Cc2c[nH]c3ccccc23)C(N)=O)[C@@H](C)O)CCCCC1 [YA-268, Palm-PEG8-G-G-DY-A6c-Asn-Thr-Phe-azaG-Leu-Arg(Me)-Trp-NH2] ({Palmitoyl-PEG8}-GG[dY][Ac6c]NTF[azaGly]L[Arg(Me)]W-NH2)  10.70

Same assay, conditions: NFAT-bla CHO-K1 cells that express human kiss1 receptor (GPR54); FRET; cells cultured with compound for 4 hours; read-out: GPR54 EC50/nM

In order of falling EC50:
1. CC(=O)N[C@H](Cc1ccc(Cl)cc1Cl)C(=O)N1CCCC[C@H]1C(=O)N[C@@H](CC(N)=O)C(=O)N[C@H](C(=O)N[C@@H](Cc1ccccc1)C(=O)NNC(=O)N[C@@H](CC(C)C)C(=O)N[C@@H](Cc1ccc(-n2cccn2)cc1)C(=O)N[C@@H](Cc1c[nH]c2ccccc12)C(N)=O)[C@@H](C)O [YA-242, Ac-[D-Phe(2,4-diCl)]—(S-Pip)-Asn-Thr-Phe-azaGly-Leu-Phe(4-Pyrazol)-Trp-NH2] (Ac-[dPhe(2,4-Cl2)][Pip]NTF[azaGly]L[X6]W-NH2)  3.75 nM
2. CNC(=N)NCCC[C@H](NC(=O)[C@H](CC(C)C)NC(=O)C1(NC(=O)[C@H](Cc2ccccc2)NC(=O)[C@@H](NC(=O)[C@H](CC(N)=O)NC(=O)C2(NC(=O)[C@@H](Cc3ccc(O)cc3)NC(C)=O)CCCCC2)[C@@H](C)O)CCCCC1)C(=O)N[C@@H](Cc1c[nH]c2ccccc12)C(N)=O [YA-243, Ac-D-Tyr-A6c-Asn-Thr-Phe-A6c-Leu-Arg(Me)-Trp-NH2] (Ac-[dY][Ac6c]NTF[Ac6c]L[Arg(Me)]W-NH2)  0.69 nM

Same assay, conditions: human kiss1 receptor (GPR54), NFAT-bla CHO-K1 cells, FRET; preliminary data; method of effect Embodiment 1; read-out: Preliminary measurement data (GPR54) EC50

`CC(=O)N[C@H](Cc1ccc(Cl)cc1Cl)C(=O)N1CCCC[C@H]1C(=O)N[C@@H](CC(N)=O)C(=O)N[C@H](C(=O)N[C@@H](Cc1ccccc1)C(=O)NNC(=O)N[C@@H](CC(C)C)C(=O)N[C@@H](Cc1ccc(-n2cccn2)cc1)C(=O)N[C@@H](Cc1c[nH]c2ccccc12)C(N)=O)[C@@H](C)O` [YA-242, Ac-[D-Phe(2,4-diCl)]—(S-Pip)-Asn-Thr-Phe-azaGly-Leu-Phe(4-Pyrazol)-Trp-NH2] (Ac-[dPhe(2,4-Cl2)][Pip]NTF[azaGly]L[X6]W-NH2) gave a pEC50 of 8.43.
